For this test, the system named is E. coli ATCC 10536. In words: In-vitro micro-dilution assay for determination of antimicrobial activity. The following applies: for Average Residual Log (CFU/mL): E. coli ATCC 10536, 10^6 cells/mL in 10 mM sodium phosphate buffer, contact time 4 hours, about 37° C., plated on MacConkey agar; for antimicrobial action (in words): low concentration, E. coli ATCC 10536, 4 hours contact. It counts as cell-based. The procedure: In-vitro Micro-dilution Assay for Determination of Antimicrobial Activity of Different Compositions:
The organism used for the assay was E. coli ATCC 10536
The procedure that was followed is given below: • a) First, the bacterial suspension corresponding to 10^6 cells/mL was prepared in 10 mM Sodium phosphate buffer. For this purpose the sodium phosphate buffer was prepared as follows: • To prepare the sodium phosphate buffer two different solutions were made. The first solution was prepared by dissolving 27.6 g of NaH2PO4.H20 (MW=138) in 500 mL of MilliQ water and made up the volume to 1 L with MilliQ water. This was then autoclaved and stored at room temperature. The molarity of the resultant solution was 0.2. • Then, the second solution was prepared by dissolving 53.62 g of […] (MW=268.1) in 500 mL of MilliQ water and made up the volume to 1 L with MilliQ water. This was then autoclaved and stored at room temperature. The molarity of the resultant solution was 0.2. • 19 mL of the first solution and 81 mL of the second solution was added together followed by the addition of 100 mL of MilliQ water to obtain a 200 mL solution of sodium phosphate buffer of molarity 0.1 with pH 7.4. • The required level of molarity that was need for the experiments were obtained by diluting the above solution. • b) Then 135 μL/well of the above bacterial suspension was taken and plated in a 96 well microtiter plate. • c) After that 15 μL of 100 mM sodium phosphate buffer was added in all well for all the samples. • d) Then the required test compositions were added in the well for the test. • e) The reaction volume for all the test samples was 300 μL. This reaction volume was adjusted by adding water. • f) The following samples were tested: • Example A: Only Culture • Example B: 1% niacinamide • Example C: 0.01% thymol • Example D: 0.01% terpineol • Example E: 0.01% thymol+0.01% terpineol • Example F: 0.01% Farnesol • Example G: 0.02% Farnesol • Example H: 1% niacinamide+0.01% Farnesol • Example I: 1% niacinamide+0.02% Farnesol • Example 1: 1% niacinamide+0.01% thymol+0.01% terpineol • Example 2: 1% niacinamide+1 μg/mL of LL-37+0.01% thymol+0.01% terpineol • For the above purpose, Thymol was procured from Nishant Aromas, India (Purity: 99%), Terpineol was also procured from Nishant Aromas, India (Purity: 99%), LL-37 (AMP) was procured from Sigma (Cat no: 94261),Niacinamide was procured from Veer Chemicals (Purity: 99%) and Farnesol was procured from Sigma-Aldrich (Cat. No: F203). • g) The contact time for the above test (for all the samples) was 4 hours and the temperature was maintained at about 37° C. • h) After the above contact time, the culture was serially diluted and plated on MacConkey Agar Medium (from Difco) and left it for 24 hours. After that, the residual colonies were counted to determine the bacterial kill/Residual Log.
In general terms: In broth dilution the organism is exposed to a series of concentrations in liquid medium.

We go through 5 compounds from patent publication US10449137B2, “Antimicrobial composition” (Conopco, Inc., priority 2015, dated 2019).

Consider `CC(C)=CCCC(C)=CCCC(C)=CCO` [Example F, Farnesol], for which the “Average Residual Log (CFU/mL)” value is given as 6.40 Log (CFU/mL).

As to `NC(=O)c1cccnc1` [Example B, niacinamide], the “Average Residual Log (CFU/mL)” value was 6.42 Log (CFU/mL).

For the compound `CC(C)=CCCC(C)=CCCC(C)=CCO` [Example G, Farnesol], the “Average Residual Log (CFU/mL)” value is 6.35 Log (CFU/mL).

In the case of terpineol [Example D], the “Average Residual Log (CFU/mL)” value is 6.45 Log (CFU/mL) and the “antimicrobial action (in words)” value is “not effective”.

In the case of `Cc1ccc(C(C)C)c(O)c1` [Example C, thymol], the “Average Residual Log (CFU/mL)” value is 6.35 Log (CFU/mL) and the “antimicrobial action (in words)” value is given as “not effective”.
